Assay results from US11066399B2, “Ferroportin inhibitors” (Vifor (International) AG, priority 2015, dated 2021).
Marks after values point to notes of the source that are not given here.

How the values were obtained:
ferroportin (Fpn) [1] = molecular target: T1, ferroportin (Fpn) (Mus musculus, UniProt Q9JHI9); experiment: Ferroportin Ubiquitination and Degradation (immunoprecipitation, Western blot, J774 cells); format: cell-based; parameters: key: +: comparable to hepcidin; −: no effect; +/−: intermediate effect; details: ca. 10-fold IC50 concentration, visual inspection of Western blots
T1 construct: host or cells: J774 mouse macrophage cell line, Fe(III)-NTA induced
T1 sequence (Q9JHI9 1-570): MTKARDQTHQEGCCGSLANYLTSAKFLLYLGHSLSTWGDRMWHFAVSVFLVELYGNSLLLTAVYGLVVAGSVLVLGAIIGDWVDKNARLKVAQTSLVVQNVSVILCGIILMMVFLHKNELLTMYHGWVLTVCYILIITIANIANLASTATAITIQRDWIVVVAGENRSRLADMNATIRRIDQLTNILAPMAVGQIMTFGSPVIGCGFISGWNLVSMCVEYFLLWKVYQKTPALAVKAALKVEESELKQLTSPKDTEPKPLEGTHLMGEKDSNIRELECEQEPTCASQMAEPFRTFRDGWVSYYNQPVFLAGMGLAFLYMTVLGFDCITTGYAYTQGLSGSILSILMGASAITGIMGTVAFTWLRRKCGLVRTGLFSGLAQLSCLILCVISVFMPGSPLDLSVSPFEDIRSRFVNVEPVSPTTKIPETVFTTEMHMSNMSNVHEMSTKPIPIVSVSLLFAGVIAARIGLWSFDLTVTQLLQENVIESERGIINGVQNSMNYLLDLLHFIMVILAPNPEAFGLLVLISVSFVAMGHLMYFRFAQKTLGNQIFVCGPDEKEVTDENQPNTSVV
Method: Exposure of cells expressing ferroportin (Fpn) to hepcidin is known to trigger ubiquitination and subsequent internalization and degradation of Fpn (Qiao, 2012). The potential of Fpn inhibitors to induce Fpn ubiquitination and degradation was investigated with an immunoprecipitation assay using the J774 mouse macrophage cell line which expresses Fpn upon treatment with iron.
Cells were incubated with synthetic human hepcidin (Bachem, Cat. H-5926) or Fpn inhibitor compounds for 10 min or 120 min. Cells were washed and lysed with ice-cold lysis buffer (Pierce, Life Technologies, Cat. 87787) including 1×HALT protease inhibitor cocktail (Life technologies, Cat. 78429) and 10 mM iodoacetamide (Sigma, Cat. 16125) to stabilize ubiquitinated proteins. Immunoprecipitation was done using the Pierce Classic IP Kit (Life Technologies, Cat. 26146) following the manufacturer's protocol. Briefly, 2 mg protein in 1.25 ml IP lysis buffer was incubated by mixing for 1 h at 4° C. with control agarose beads to pre-clear the lysate and reduce nonspecific signal. Unbound lysate was then incubated overnight with 12 μg per reaction of the affinity purified anti-Fpn antibody F308 that was raised against a GST fusion protein of mouse Fpn amino acids 224-308. Immune complexes were captured by pipetting 14 μl settled Pierce Protein A/G Plus Agarose beads (Life Technologies, Cat. 20423) per reaction and the slurry was incubated for 1.5 h at 4° C. with gentle end-over-end mixing. The beads were washed and immune complexes were eluted directly with 75 μl SDS NuPAGE LDS sample buffer (Life Technologies, Cat. NP0007) containing DTT (Life Technologies, Cat. NP0009). After immunoprecipitation samples were analyzed by Western blotting using a rabbit anti-mouse MTP1 antiserum (Alpha Diagnostic International, Cat. MTP11-A) and a mouse anti-mono- and polyubiquitinylated conjugates monoclonal antibody (Enzo Lifesciences, Cat. BML-PW8810) for detection of ferroportin and ubiquitin, respectively. Mouse monoclonal anti-rabbit IgG light chain (Abcam, Cat. ab99697) and anti-mouse IgG H&L (Abcam, Cat. ab6789) HRP conjugates were used as secondary antibodies.
A selection of eleven Fpn inhibitors were tested in this assay and compared to hepcidin.
Table 5 Summary of Fpn inhibitors tested in the Fpn ubiquitination and degradation assay.

ferroportin (Fpn) [2] = molecular target: T1, ferroportin (Fpn); experiment: Hepcidin Internalization Assay (J774); format: cell-based; details: average (AVE) of multiple measurements; TMR-hepcidin 25 nM, J774 cells
Text: This cellular assay allows quantification of the binding of hepcidin to ferroportin (Fpn) through microscopic detection of internalization of a fluorescently labeled hepcidin into J774 cells. […] Binding of hepcidin to Fpn triggers internalization and degradation of both hepcidin and Fpn. However, the TMR (6-carboxytetramethylrhodamine) fluorophore attached to hepcidin remains associated with the cell after degradation of the hepcidin peptide backbone. Therefore, microscopic detection of cell-associated TMR fluorescence is a measure of hepcidin binding to Fpn and internalization of hepcidin and Fpn. If TMR-hepcidin is prevented from binding to Fpn, cellular TMR fluorescence remains low (Dürrenberger et al, 2013). The effect of small molecular weight Fpn inhibitor compounds in this assay was evaluated in vitro as described below.
After overnight incubation, cells were washed 3 times with pre-warmed DMEM w/o phenol red, 30 μl/well of DMEM w/o phenol red was added after the final wash and 10 μl/well of dilution series of test compounds were added in triplicates. […] Cells were incubated in a total volume of 50 μl at 37° C. with 5% CO2 for 2 hours, then Hoechst 33342 dye was added to a final concentration of 0.5 μg/ml to stain nuclei and further incubated for 10 min. at 37° C. with 5% CO2. Cells were washed 3 times with PBS and fixed in 100 μl of 4% paraformaldehyde in PBS for 15 min. at room temperature. After removal of the paraformaldehyde solution, cells were washed 3 times with PBS leaving 100 μl per well and the plates were sealed with foil plate seal. TMR (530-550 nm excitation/575-625 nm emission/400 ms exposure time) and Hoechst 33342 (360-370 nm excitation/420-460 nm emission/10 ms exposure time) fluorescence images were acquired using a ScanR plate imager (Olympus) with a 20× high NA objective. Four pictures were acquired per well and fluorescence channel covering ca. 1500 cells per well. The acquired image data was analysed with the ScanR image analysis software. Image analysis included detection of nuclei (Hoechst 33342 fluorescence), identification of cell-associated regions, application of a virtual channel and thresholding for rolling-ball-type background reduction, followed by application of the Sum(Mean) algorithm to measure the TMR fluorescence associated with cells as a quantitative measure for internalized TMR-hepcidin. IC50 values were calculated with the Sum(Mean) raw data using “log(inhibitor) vs. response” curve fitting of Prism 5 software (GraphPad Software Inc., version 5.02).

human Fpn = molecular target: T2, human Fpn (Homo sapiens, UniProt Q9NP59); experiment: Biophysical Ferroportin-Hepcidin Binding Assay (fluorescence polarization); details: average (AVE) of multiple measurements; TMR-hepcidin binding to purified human Fpn; read-out: FP IC50
T2 construct: FLAG (C); made in house; host or cells: Pichia pastoris
T2 sequence (Q9NP59 1-571): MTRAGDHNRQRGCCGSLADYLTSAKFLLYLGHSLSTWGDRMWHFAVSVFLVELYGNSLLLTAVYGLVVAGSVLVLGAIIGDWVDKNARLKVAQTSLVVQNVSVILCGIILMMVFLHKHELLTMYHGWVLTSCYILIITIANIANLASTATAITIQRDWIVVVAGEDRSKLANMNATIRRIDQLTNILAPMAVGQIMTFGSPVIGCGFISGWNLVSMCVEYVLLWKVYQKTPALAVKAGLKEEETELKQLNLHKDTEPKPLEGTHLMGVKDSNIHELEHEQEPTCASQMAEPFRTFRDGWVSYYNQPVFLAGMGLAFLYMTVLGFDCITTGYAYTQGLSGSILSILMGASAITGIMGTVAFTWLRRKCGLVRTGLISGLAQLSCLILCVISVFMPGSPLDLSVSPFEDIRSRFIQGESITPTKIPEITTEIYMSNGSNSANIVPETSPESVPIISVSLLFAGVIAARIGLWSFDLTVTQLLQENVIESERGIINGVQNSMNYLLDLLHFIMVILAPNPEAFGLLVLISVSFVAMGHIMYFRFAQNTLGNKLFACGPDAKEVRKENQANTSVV
Method: This biophysical assay was developed to confirm inhibition of hepcidin binding to ferroportin (Fpn) more directly. Incubation of TMR-hepcidin with purified human Fpn isolated from Pichia pastoris yeast cells expressing human Fpn with a C-terminal FLAG affinity tag (Bonaccorsi di Patti, 2014) leads to increased fluorescence polarization (FP) of the TMR-hepcidin ligand. Small molecular weight Fpn inhibitors were tested for inhibition of binding of TMR-hepcidin to Fpn, as detected by dose-dependent decrease of the TMR FP signal, as described in detail below.
A mixture of […] human Fpn and 30 nM TMR-hepcidin in FP assay buffer containing 50 mM Tris-HCl pH 7.3, 200 mM NaCl, 0.02% DDM, 0.1% BSA was plated into a 384 well black low volume round bottom plate (Corning, Cat. 3677) at 16 μl per well. 8 μl of serial dilutions of test compounds were added in duplicates to reach final Fpn and TMR-hepcidin concentrations of […] and 20 nM, respectively. Plates were incubated for 90 minutes at room temperature and parallel (S) and perpendicular (P) fluorescence was measured in a Synergy H1 fluorescence reader (BioTek). FP values were calculated in mP according to the following formula.

naïve WT C57BL/6 mice = experiment: Hypoferremia in naïve mice; format: in vivo, mouse; details: injection of synthetic hepcidin in WT naïve mice, from the vehicle control, maximal effect at 3-4 hours
Method: Female C57BL/6 mice (Janvier, France) at age of 9 weeks were fed a standard diet (Harlan Provimi Kliba 3436) and treated per os (p.o.) with compounds or the corresponding amount of vehicle at a volume of 10 ml/kg body weight. Fpn inhibitors were formulated in 0.5% methylcellulose/water or 20% cremophor EL/water and dosed p.o. in mice at 10, 30 or 100 mg/kg body weight. Three hours later, mice were pre-terminally anesthetized in isoflurane chambers and blood was collected by retro-orbital bleeding. Mice were sacrificed by cervical dislocation and spleens, livers and duodena were harvested and used for biomarker analysis. All experiments have been conducted in compliance with the license approved by the responsible veterinarian authorities. Serum was isolated by centrifugation of blood into gel-containing microtainers and serum iron was determined by the MULTIGENT Iron assay (Abbott Diagnostics, 6K95). Eight mice per group were used and one-way ANOVA with Bonferroni's multiple comparison test was performed to analyze the statistical differences between the experimental groups.
Relative serum iron reduction at 3 h after dosing was calculated by subtracting the average of serum iron values of animals dosed with the Fpn inhibitor from that of vehicle-treated animals. The difference in average serum iron values between vehicle and compound treated groups was then divided by the average of serum iron of the vehicle control group and listed as percentage.

anemic Wistar rats = experiment: Prevention of iron absorption in anemic rats; format: in vivo, rat; details: 1 h before 0.5 mg/kg ferrous sulfate
Method: To assess the in vivo efficacy of ferroportin (Fpn) inhibitors to block iron absorption, a series of Fpn inhibitors were tested in an anemic rat model for iron absorption. Wistar rats (3-4 weeks old, n=5, Janvier Labs) were fed a low iron diet (Provimi-Kliba, Cat. 2039) until their hemoglobin (Hb) values reach 7-8 g/dl one day before dosing of the Fpn inhibitor compounds. One hour before oral application of 0.5 mg/kg of ferrous sulfate, test compounds formulated in methyl cellulose or Cremophor were dosed orally. Blood samples were taken by tail vein puncture one hour before administration of iron (−1 h), immediately after dosing of the Fpn inhibitors (0 h) and one hour (1 h), three hours (3 h) and occasionally up to 6 hours (6 h) after dosing of the test compounds. Serum iron levels were measured (Abbott Diagnostics, Cat. 6K95) and inhibition of the rise of serum iron three hours after dosing of the test compound was calculated as a measure for efficacy of the Fpn inhibitors in blocking iron absorption (Table 7).

Row | Structure (SMILES) | Fpn Degradation (120 min.) (ferroportin (Fpn) [1]) | Fpn Ubiquitination (10 min.) (ferroportin (Fpn) [1]) | IC50 (ferroportin (Fpn) [2]) | IC50 (human Fpn) | other results
1 | O=C(NCc1ncccc1F)c1coc(CCNCc2nc3ccccc3[nH]2)n1 [Example 126] | + | +/− |  |  | 
2 | O=C(NCc1ccccc1F)c1coc(C2CN(CCCc3nc4ccccc4[nH]3)C2)n1 [Example 233] |  |  | 16 µM | 6.78 µM | 
3 | CC[C@H](C)[C@@H]1NC(=O)[C@@H](NC(=O)[C@@H](NC(=O)[C@@H]2CCCN2C(=O)[C@H](Cc2ccccc2)NC(=O)[C@H](Cc2c[nH]cn2)NC(=O)[C@@H](NC(=O)[C@@H](N)CC(=O)O)[C@@H](C)O)[C@@H](C)CC)CSSC[C@@H](C(=O)N[C@@H](CCCCN)C(=O)N[C@H](C(=O)O)[C@@H](C)O)NC(=O)[C@@H]2CSSC[C@@H]3NC(=O)[C@@H]4CSSC[C@H](NC(=O)[C@H](Cc5ccccc5)NC1=O)C(=O)N[C@@H](CSSC[C@H](NC(=O)[C@H](CCCCN)NC(=O)[C@H](CO)NC(=O)[C@H](CCCNC(=N)N)NC(=O)[C@H](Cc1c[nH]cn1)NC3=O)C(=O)NCC(=O)N[C@@H](CCSC)C(=O)N2)C(=O)NCC(=O)N4 [hepcidin, reference compound] | + | + |  |  | reduction of serum iron levels (naïve WT C57BL/6 mice): 40-50%
4 | O=C(NCc1ccccn1)c1csc2c1CCN(CCc1nc3ccccc3[nH]1)C2 [Example 49] |  |  | 30.6 µM | 24 µM | 
5 | Cc1cccnc1CNC(=O)c1csc(CCNCc2nc3ccccc3[nH]2)n1 [Example 55] |  |  | 0.015 µM |  | Serum Iron Inhibition (%) at 3 h (anemic Wistar rats; Dose 3 mg/kg oral): 54*** %; Serum Iron Inhibition (%) at 3 h (anemic Wistar rats; Dose 10 mg/kg oral): 72*** %
